ChEMBL document CHEMBL1201862, “PubChem BioAssay data set” (2004)
Structures can show the parent of a compound that is named as a salt.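 96-well plates; 48 h exposure; 5 concentrations. Endpoints by linear interpolation between flanking doses. Not reached: highest tested concentration assigned. The concentration for 50% growth inhibition is given as GI50.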 Active and inactive are the calls of the source. No stated cut-off is given here; in the data, active = GI50 up to about 1.1 µM and inactive = higher.

Legend:
Experiment in all cases: NCI-60 cell line screen, 48 h
SK-MEL-2 = tested on: SK-MEL-2
HL-60 = tested on: HL-60
ACHN = tested on: ACHN
SW-620 = tested on: SW-620
U-251 = tested on: U-251
RXF 393 = tested on: RXF 393
CCRF-CEM = tested on: CCRF-CEM
Malme-3M = tested on: Malme-3M
SF-268 = tested on: SF-268
NCI-H522 = tested on: NCI-H522
SK-MEL-5 = tested on: SK-MEL-5
LOX IMVI = tested on: LOX IMVI
HCT-116 = tested on: HCT-116
SR = tested on: SR
HT-29 = tested on: HT-29
COLO 205 = tested on: COLO 205
SK-MEL-28 = tested on: SK-MEL-28
IGROV-1 = tested on: IGROV-1

Structure (SMILES)	GI50 (SK-MEL-2)	GI50 (HL-60)	GI50 (ACHN)	GI50 (SW-620)	GI50 (U-251)	GI50 (RXF 393)	GI50 (CCRF-CEM)	GI50 (Malme-3M)	GI50 (SF-268)	GI50 (NCI-H522)	GI50 (SK-MEL-5)	GI50 (LOX IMVI)	GI50 (HCT-116)	GI50 (SR)	GI50 (HT-29)	GI50 (COLO 205)	GI50 (SK-MEL-28)	GI50 (IGROV-1)
CCCN(CCC)C(=O)Cc1c2n(c3ccccc13)Cc1ccccc1-2	94.4 µM (inactive)	28.8 µM (inactive)	12 µM (inactive)	> 100 µM (inactive)	> 100 µM (inactive)	24.4 µM (inactive)	> 100 µM (inactive)	58.9 µM (inactive)	> 100 µM (inactive)	40 µM (inactive)	29.6 µM (inactive)	83.4 µM (inactive)	28.8 µM (inactive)	33.1 µM (inactive)	61.8 µM (inactive)	95.3 µM (inactive)	> 100 µM (inactive)	
NCCCCN [PUTRESCINE HYDROCHLORIDE]	> 100 µM (inactive)	> 100 µM (inactive)	> 100 µM (inactive)	> 100 µM (inactive)	> 100 µM (inactive)	> 100 µM (inactive)	> 100 µM (inactive)	> 100 µM (inactive)	> 100 µM (inactive)	> 100 µM (inactive)	> 100 µM (inactive)	> 100 µM (inactive)	> 100 µM (inactive)	> 100 µM (inactive)	> 100 µM (inactive)	> 100 µM (inactive)	> 100 µM (inactive)	> 100 µM (inactive)
O=[N+]([O-])c1ccc(C2=Nn3cnnc3SC2)o1	20.9 µM (inactive)	14.8 µM (inactive)	15.8 µM (inactive)	12.2 µM (inactive)	16.3 µM (inactive)	18.4 µM (inactive)	23 µM (inactive)	> 10 µM (inactive)	19.6 µM (inactive)	> 10 µM (inactive)	16.4 µM (inactive)	2.06 µM (inactive)	14 µM (inactive)	16.7 µM (inactive)	11.3 µM (inactive)		16.6 µM (inactive)	> 10 µM (inactive)
CC(=O)Nc1[nH]n(C)c(=O)c1-c1nnc(C)s1	> 100 µM (inactive)	> 100 µM (inactive)	> 100 µM (inactive)	> 100 µM (inactive)	> 100 µM (inactive)	> 100 µM (inactive)	> 100 µM (inactive)	> 100 µM (inactive)	> 100 µM (inactive)	> 100 µM (inactive)	> 100 µM (inactive)	> 100 µM (inactive)	> 100 µM (inactive)	> 100 µM (inactive)	> 100 µM (inactive)	> 100 µM (inactive)	> 100 µM (inactive)	> 100 µM (inactive)
O/N=C1/C(=C/c2ccc(OCc3ccccc3)cc2)CCCC1C(NO)c1ccc(OCc2ccccc2)cc1 (stereo not drawn)	8.55 µM (inactive)	5.57 µM (inactive)	17 µM (inactive)	17.4 µM (inactive)	10.5 µM (inactive)	3.42 µM (inactive)	11.1 µM (inactive)	46.5 µM (inactive)		6.27 µM (inactive)	6.04 µM (inactive)	4.05 µM (inactive)	8.97 µM (inactive)	11.8 µM (inactive)	5.24 µM (inactive)	16.9 µM (inactive)	48.4 µM (inactive)	> 100 µM (inactive)
COC(=O)C(=NNc1ccccc1[N+](=O)[O-])C(=O)OC	> 100 µM (inactive)	> 100 µM (inactive)	> 100 µM (inactive)	> 100 µM (inactive)	> 100 µM (inactive)	> 100 µM (inactive)	> 100 µM (inactive)	> 100 µM (inactive)	> 100 µM (inactive)	> 100 µM (inactive)		> 100 µM (inactive)	> 100 µM (inactive)	> 100 µM (inactive)	> 100 µM (inactive)	> 100 µM (inactive)	> 100 µM (inactive)	> 100 µM (inactive)
CCOC(=O)Cn1c(=O)[nH]c(=O)c2c1ncn2Cc1ccccc1	> 100 µM (inactive)	> 100 µM (inactive)	> 100 µM (inactive)	> 100 µM (inactive)	> 100 µM (inactive)	> 100 µM (inactive)	> 100 µM (inactive)	> 100 µM (inactive)	> 100 µM (inactive)	> 100 µM (inactive)	> 100 µM (inactive)	> 100 µM (inactive)	> 100 µM (inactive)	> 100 µM (inactive)	> 100 µM (inactive)	> 100 µM (inactive)	> 100 µM (inactive)	> 100 µM (inactive)
CNC(=O)OCc1nc([S+](C)[O-])n(C)c1COC(=O)NC (stereo not drawn)	> 100 µM (inactive)	> 100 µM (inactive)	> 24.2 µM (inactive)	> 46.5 µM (inactive)	> 100 µM (inactive)	> 100 µM (inactive)	> 100 µM (inactive)	> 100 µM (inactive)	> 100 µM (inactive)	> 100 µM (inactive)	> 46.5 µM (inactive)	> 100 µM (inactive)	> 100 µM (inactive)	> 100 µM (inactive)	> 100 µM (inactive)	> 41.8 µM (inactive)	> 100 µM (inactive)	> 50.4 µM (inactive)
C[N+]1(C)C[C@@H](O)C[C@@H]1C(=O)[O-] [BETONICINE]	> 100 µM (inactive)	> 100 µM (inactive)	> 100 µM (inactive)	> 100 µM (inactive)	> 100 µM (inactive)	> 100 µM (inactive)	> 100 µM (inactive)	> 100 µM (inactive)	> 100 µM (inactive)	> 100 µM (inactive)		> 100 µM (inactive)	> 100 µM (inactive)	> 100 µM (inactive)	> 100 µM (inactive)	> 100 µM (inactive)	> 100 µM (inactive)	> 100 µM (inactive)
Cc1cc(N(CCC#N)CCC#N)ccc1/C(Sc1ccccc1)=C(\NC(=O)/C=C/c1ccccc1)C(=O)Sc1ccccc1	3.42 µM (inactive)	0.628 µM (active)	4.75 µM (inactive)	4.12 µM (inactive)	0.82 µM (active)	1.56 µM (inactive)	0.271 µM (active)	8.28 µM (inactive)	0.565 µM (active)	0.587 µM (active)	2.77 µM (inactive)	0.83 µM (active)	2.17 µM (inactive)	0.665 µM (active)	2.91 µM (inactive)	2.55 µM (inactive)	4.99 µM (inactive)	0.805 µM (active)
CC1OC(n2cc(F)c(=O)[nH]c2=O)C=CC1O (stereo not drawn)	> 100 µM (inactive)	37.2 µM (inactive)	> 100 µM (inactive)	> 46 µM (inactive)	> 100 µM (inactive)	> 100 µM (inactive)	> 51.3 µM (inactive)	> 100 µM (inactive)	> 100 µM (inactive)	> 100 µM (inactive)	> 100 µM (inactive)	> 43.2 µM (inactive)	> 100 µM (inactive)	> 100 µM (inactive)	> 100 µM (inactive)	> 100 µM (inactive)	> 100 µM (inactive)	> 100 µM (inactive)
